Earlier results on 2 compounds are cited in US20180250285A1 (Teva Pharmaceutical Industries Ltd., priority 2012, published 2018).

The conditions of data set [1]: in vivo.
The subject of data set [2] is Huntington's disease patients.
The subject of data set [3] is patients with HD.

Take `CCN(C(=O)c1c(O)c2c(Cl)cccc2n(C)c1=O)c1ccccc1` [Laquinimod]: in data set [1], the oral bioavailability result is listed as “high”.

With `CCCN1CCC(c2cccc(S(C)(=O)=O)c2)CC1` [pridopidine, 4-[3-(methylsulfonyl)phenyl]-1-propyl-piperidine], the “tertiary endpoint UHDRS-TMS (changes in motor function) and individual items within the mMS (gait, dysarthria)” value in data set [2] (45 mg daily or 45 mg twice daily for 6 months) is “statistically significant effect of treatment”. Besides, the “primary endpoint: effect on a specific subset of motor symptoms defined in the mMS” value in data set [2] (at 26 weeks, 45 mg daily or 45 mg twice daily) is on record as “not met”. Besides, the “symptomatic relief incl. improved hand movements, gait and balance” value in data set [3] is “significant symptomatic relief”.
